# Assay results: patent US20240158412A1 (Faxian Therapeutics, LLC, priority 2021, published 2024)
# Molecular target: USP7 (Homo sapiens, UniProt Q93009)
# Test: biochemical
# 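Note: fluorescence intensity readout of USP7 enzymatic activity, reaction incubated 90 min at room temperature.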
# Chain of USP7 (Q93009 whole entry): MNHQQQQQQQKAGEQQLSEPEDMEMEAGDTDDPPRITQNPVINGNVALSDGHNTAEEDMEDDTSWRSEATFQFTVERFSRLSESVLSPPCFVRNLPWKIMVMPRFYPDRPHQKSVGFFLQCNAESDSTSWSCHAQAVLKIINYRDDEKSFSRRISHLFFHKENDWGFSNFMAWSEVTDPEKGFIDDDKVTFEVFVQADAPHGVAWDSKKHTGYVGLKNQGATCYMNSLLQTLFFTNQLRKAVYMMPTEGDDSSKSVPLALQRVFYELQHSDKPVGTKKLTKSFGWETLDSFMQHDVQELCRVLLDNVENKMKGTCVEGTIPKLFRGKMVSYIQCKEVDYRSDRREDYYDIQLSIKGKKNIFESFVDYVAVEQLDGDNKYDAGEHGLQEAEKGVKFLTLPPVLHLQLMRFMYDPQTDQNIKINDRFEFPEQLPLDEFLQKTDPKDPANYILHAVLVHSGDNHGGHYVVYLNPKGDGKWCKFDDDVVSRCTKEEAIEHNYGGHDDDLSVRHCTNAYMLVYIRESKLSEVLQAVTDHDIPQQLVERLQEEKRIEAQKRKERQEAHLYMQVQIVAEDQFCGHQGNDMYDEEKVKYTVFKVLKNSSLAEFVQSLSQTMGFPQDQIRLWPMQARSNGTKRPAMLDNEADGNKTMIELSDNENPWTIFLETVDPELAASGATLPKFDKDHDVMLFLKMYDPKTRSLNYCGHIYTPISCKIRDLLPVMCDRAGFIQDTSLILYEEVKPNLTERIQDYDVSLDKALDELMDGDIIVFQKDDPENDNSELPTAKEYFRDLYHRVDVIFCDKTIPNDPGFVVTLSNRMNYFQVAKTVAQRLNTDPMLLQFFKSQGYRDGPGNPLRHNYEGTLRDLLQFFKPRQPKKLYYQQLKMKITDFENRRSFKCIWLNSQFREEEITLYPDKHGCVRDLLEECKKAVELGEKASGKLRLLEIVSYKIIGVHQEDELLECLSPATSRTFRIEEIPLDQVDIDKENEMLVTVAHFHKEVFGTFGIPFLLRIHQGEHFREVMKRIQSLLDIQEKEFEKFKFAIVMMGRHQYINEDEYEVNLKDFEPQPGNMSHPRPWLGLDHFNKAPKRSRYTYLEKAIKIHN
row,Compound,IC50 [nM]
1,"O=C1CCC(=O)N1Cc1cc2ncnc(-c3cc(Cl)cc4c3N([C@@H]3CNC5(CCC5)C3)C[C@H]3C[C@@H]43)c2s1 [Example 167a, 1-((4-((1aS,7bR)-6-chloro-3-((S)-5-azaspiro[3.4]octan-7-yl)-1a,2,3,7b-tetrahydro-1H-cyclopropa[c]quinolin-4-yl)thieno[3,2-d]pyrimidin-6-yl)methyl)pyrrolidine-2,5-dione]",< 10
2,"O=C1CCC(=O)N1Cc1cc2ncnc(-c3cc(Cl)cc4c3N([C@H]3CNC5(CCC5)C3)C[C@H]3C[C@@H]43)c2s1 [Example 167b, 1-((4-((1aS,7bR)-6-chloro-3-((R)-5-azaspiro[3.4]octan-7-yl)-1a,2,3,7b-tetrahydro-1H-cyclopropa[c]quinolin-4-yl)thieno[3,2-d]pyrimidin-6-yl)methyl)pyrrolidine-2,5-dione]",> 1000
3,"O=C1CCC(=O)N1Cc1cc2ncnc(-c3cc(Cl)cc4c3N([C@H]3CNC5(CCC5)C3)C[C@@H]3C[C@H]43)c2s1 [Example 167c, 1-((4-((1aR,7bS)-6-chloro-3-((R)-5-azaspiro[3.4]octan-7-yl)-1a,2,3,7b-tetrahydro-1H-cyclopropa[c]quinolin-4-yl)thieno[3,2-d]pyrimidin-6-yl)methyl)pyrrolidine-2,5-dione]",10 to 100
4,"N#Cc1cc(-c2ccnc3cc(CN4C(=O)CCC4=O)sc23)c2c(c1)[C@@H]1C[C@@H]1CN2[C@@H]1CNC2(CCC2)C1 [Example 168, (1aS,7bR)-4-(2-((2,5-dioxopyrrolidin-1-yl)methyl)thieno[3,2-b]pyridin-7-yl)-3-((S)-5-azaspiro[3.4]octan-7-yl)-1a,2,3,7b-tetrahydro-1H-cyclopropa[c]quinoline-6-carbonitrile]",< 10
5,"N#Cc1cc(-c2ccnc3cc(Cn4c(=O)ccn(CC(F)(F)F)c4=O)sc23)c2c(c1)[C@@H]1C[C@@H]1CN2[C@@H]1CNC2(CCC2)C1 [Example 169, (1aS,7bR)-4-(2-((2,6-dioxo-3-(2,2,2-trifluoroethyl)-3,6-dihydropyrimidin-1(2H)-yl)methyl)thieno[3,2-b]pyridin-7-yl)-3-((S)-5-azaspiro[3.4]octan-7-yl)-1a,2,3,7b-tetrahydro-1H-cyclopropa[c]quinoline-6-carbonitrile]",< 10
6,"NC(=O)c1cc(-c2ccnc3cc(Cn4c(=O)ccn(CC(F)(F)F)c4=O)sc23)c2c(c1)[C@@H]1C[C@@H]1CN2[C@@H]1CNC2(CCC2)C1 [Example 170, (1aS,7bR)-4-(2-((2,6-dioxo-3-(2,2,2-trifluoroethyl)-3,6-dihydropyrimidin-1(2H)-yl)methyl)thieno[3,2-b]pyridin-7-yl)-3-((S)-5-azaspiro[3.4]octan-7-yl)-1a,2,3,7b-tetrahydro-1H-cyclopropa[c]quinoline-6-carboxamide]",< 10
7,"CC1(C)C2C(=O)N(Cc3cc4nccc(-c5cc(Cl)cc6c5N([C@@H]5CNC7(CCC7)C5)CCO6)c4s3)C(=O)C21 (stereo partly drawn) [Example 172, 3-((7-(7-chloro-4-((S)-5-azaspiro[3.4]octan-7-yl)-3,4-dihydro-2H-benzo[b][1,4]oxazin-5-yl)thieno[3,2-b]pyridin-2-yl)methyl)-6,6-dimethyl-3-azabicyclo[3.1.0]hexane-2,4-dione]",10 to 100
8,"O=C1COc2cc(Cl)cc(-c3ccnc4cc(Cn5ncc(C6CC6)cc5=O)sc34)c2N1[C@@H]1CNC2(CCC2)C1 [Example 174, (S)-7-chloro-5-(2-((4-cyclopropyl-6-oxopyridazin-1(6H)-yl)methyl)thieno[3,2-b]pyridin-7-yl)-4-(5-azaspiro[3.4]octan-7-yl)-2H-benzo[b][1,4]oxazin-3(4H)-one]",< 10
9,"Cc1ccnn(Cc2cc3nccc(-c4cc(C(F)(F)F)cc5c4N([C@@H]4CNC6(CCC6)C4)CCO5)c3s2)c1=O [Example 176b, (S)-2-((7-(4-(5-azaspiro[3.4]octan-7-yl)-7-(trifluoromethyl)-3,4-dihydro-2H-benzo[b][1,4]oxazin-5-yl)thieno[3,2-b]pyridin-2-yl)methyl)-4-methylpyridazin-3(2H)-one]",< 10
10,"N#Cc1cc2c(c(-c3ccnc4cc(CN5C(=O)C6CC6C5=O)sc34)c1)N([C@H]1CNC3(CCCC3)C1)CCC2 (stereo partly drawn) [Example 178a, 8-(2-((2,4-dioxo-3-azabicyclo[3.1.0]hexan-3-yl)methyl)thieno[3,2-b]pyridin-7-yl)-1-((R)-1-azaspiro[4.4]nonan-3-yl)-1,2,3,4-tetrahydroquinoline-6-carbonitrile]",101 to 1000
11,"N#Cc1cc2c(c(-c3ccnc4cc(CN5C(=O)C6CC6C5=O)sc34)c1)N([C@@H]1CNC3(CCCC3)C1)CCC2 (stereo partly drawn) [Example 178b, 8-(2-((2,4-dioxo-3-azabicyclo[3.1.0]hexan-3-yl)methyl)thieno[3,2-b]pyridin-7-yl)-1-((S)-1-azaspiro[4.4]nonan-3-yl)-1,2,3,4-tetrahydroquinoline-6-carbonitrile]",< 10
12,"O=C1CCC(=O)N1Cc1cc2nccc(-c3cc(Cl)cc4c3N(C3CC5(CCCN5)C3)CCC4)c2s1 (stereo not drawn) [Example 180, 1-((7-(6-chloro-1-(5-azaspiro[3.4]octan-2-yl)-1,2,3,4-tetrahydroquinolin-8-yl)thieno[3,2-b]pyridin-2-yl)methyl)pyrrolidine-2,5-dione]",10 to 100
13,"O=C1C2CC2C(=O)N1Cc1cc2nccc(-c3cc(Cl)cc4c3N([C@@H]3CN[C@@H](CO)C3)CCC4)c2s1 (stereo partly drawn) [Example 185, 3-((7-(6-chloro-1-((3S,5R)-5-(hydroxymethyl)pyrrolidin-3-yl)-1,2,3,4-tetrahydroquinolin-8-yl)thieno[3,2-b]pyridin-2-yl)methyl)-3-azabicyclo[3.1.0]hexane-2,4-dione]",< 10
14,"O=c1cc(C2CC2)cnn1Cc1cc2nccc(-c3cc(Cl)cc4c3N([C@@H]3CN[C@@H](CO)C3)CCC4)c2s1 [Example 186, 2-[[7-[6-chloro-1-[(3S,5R)-5-(hydroxymethyl)pyrrolidin-3-yl]-3,4-dihydro-2H-quinolin-8-yl]thieno[3,2-b]pyridin-2-yl]methyl]-5-cyclopropyl-pyridazin-3-one]",< 10
15,"O=c1cc(C2CC2)cnn1Cc1cc2nccc(-c3cc(Cl)cc4c3N([C@@H]3CN[C@H](CO)C3)CCC4)c2s1 [Example 187, 2-((7-(6-chloro-1-((3S,5S)-5-(hydroxymethyl)pyrrolidin-3-yl)-1,2,3,4-tetrahydroquinolin-8-yl)thieno[3,2-b]pyridin-2-yl)methyl)-5-cyclopropylpyridazin-3(2H)-one]",< 10
16,"CC1(c2cnn(Cc3cc4nccc(-c5cc(Cl)cc6c5N([C@@H]5CN[C@@H](CO)C5)CCC6)c4s3)c(=O)c2)CC1 [Example 188, 2-((7-(6-chloro-1-((3S,5R)-5-(hydroxymethyl)pyrrolidin-3-yl)-1,2,3,4-tetrahydroquinolin-8-yl)thieno[3,2-b]pyridin-2-yl)methyl)-5-(1-methylcyclopropyl)pyridazin-3(2H)-one]",< 10
17,"CC(C)(O)[C@H]1C[C@H](N2CCCc3cc(Cl)cc(-c4ccnc5cc(CN6C(=O)CCC6=O)sc45)c32)CN1 [Example 189, 1-((7-(6-chloro-1-((3S,5R)-5-(2-hydroxypropan-2-yl)pyrrolidin-3-yl)-1,2,3,4-tetrahydroquinolin-8-yl)thieno[3,2-b]pyridin-2-yl)methyl)pyrrolidine-2,5-dione]",< 10
18,"CC(C)(C)c1cnn(Cc2cc3nccc(-c4cc(C#N)cc5c4N([C@@H]4CN[C@@H](CO)C4)CCC5)c3s2)c(=O)c1 [Example 190, 8-[2-[(4-tert-butyl-6-oxo-pyridazin-1-yl)methyl]thieno[3,2-b]pyridin-7-yl]-1-[(3S,5R)-5-(hydroxymethyl)pyrrolidin-3-yl]-3,4-dihydro-2H-quinoline-6-carbonitrile]",< 10
19,"N#Cc1cc2c(c(-c3ccnc4cc(Cn5c(=O)ccn(C6CC(F)(F)C6)c5=O)sc34)c1)N([C@@H]1CN[C@@H](CO)C1)CCC2 [Example 191, 8-(2-((3-(3,3-difluorocyclobutyl)-2,6-dioxo-2,3-dihydropyrimidin-1(6H)-yl)methyl)thieno[3,2-b]pyridin-7-yl)-1-((3S,5R)-5-(hydroxymethyl)pyrrolidin-3-yl)-1,2,3,4-tetrahydroquinoline-6-carbonitrile]",< 10
20,"N#Cc1cc(-c2ccnc3cc(Cn4ncc(C5(C(F)(F)F)CC5)cc4=O)sc23)c2c(c1)[C@@H]1C[C@@H]1CN2[C@@H]1CN[C@@H](CO)C1 [Example 194a, (1aS,7bR)-3-((3S,5R)-5-(hydroxymethyl)pyrrolidin-3-yl)-4-(2-((6-oxo-4-(1-(trifluoromethyl)cyclopropyl)pyridazin-1(6H)-yl)methyl)thieno[3,2-b]pyridin-7-yl)-1a,2,3,7b-tetrahydro-1H-cyclopropa[c]quinoline-6-carbonitrile]",< 10
21,"COC[C@@]1(C)C[C@H](N2CCCc3cc(Cl)cc(-c4ccnc5cc(CN6C(=O)CCC6=O)sc45)c32)CN1 [Example 200, 1-((7-(6-chloro-1-((3S,5R)-5-(methoxymethyl)-5-methylpyrrolidin-3-yl)-1,2,3,4-tetrahydroquinolin-8-yl)thieno[3,2-b]pyridin-2-yl)methyl)pyrrolidine-2,5-dione]",10 to 100
22,"C[C@@]1(C(=O)O)C[C@H](N2CCCc3cc(Cl)cc(-c4ccnc5cc(CN6C(=O)CCC6=O)sc45)c32)CN1 [Example 205, (2S,4S)-4-(6-chloro-8-(2-((2,5-dioxopyrrolidin-1-yl)methyl)thieno[3,2-b]pyridin-7-yl)-3,4-dihydroquinolin-1(2H)-yl)-2-methylpyrrolidine-2-carboxylic acid]",< 10
23,"C[C@]1(CO)C[C@H](N2CCCc3cc(C#N)cc(-c4ccnc5cc(CN6C(=O)C7CC7C6=O)sc45)c32)CN1 (stereo partly drawn) [Example 206, 8-(2-((2,4-dioxo-3-azabicyclo[3.1.0]hexan-3-yl)methyl)thieno[3,2-b]pyridin-7-yl)-1-((3S,5R)-5-(hydroxymethyl)-5-methylpyrrolidin-3-yl)-1,2,3,4-tetrahydroquinoline-6-carbonitrile]",< 10
24,"C[C@]1(CO)C[C@H](N2CCCc3cc(Cl)cc(-c4ccnc5cc(Cn6ncc(C7(C(F)(F)F)CC7)cc6=O)sc45)c32)CN1 [Example 207, 2-((7-(6-chloro-1-((3S,5R)-5-(hydroxymethyl)-5-methylpyrrolidin-3-yl)-1,2,3,4-tetrahydroquinolin-8-yl)thieno[3,2-b]pyridin-2-yl)methyl)-5-(1-(trifluoromethyl)cyclopropyl)pyridazin-3(2H)-one]",< 10
